Source: patent US20100298141A1, “SUBSTITUTED PYRIDINE N-OXIDE HERBICIDES” (E. I. DU PONT DE NEMOURS AND COMPANY, priority 2007, published 2010)

Columns and labels:
soybean = assay: Test C pre-/postemergence test; assay type: in vivo, Glycine max; conditions: Preemergence; for Soybean plant response rating: 62 g ai/ha, scale 0 to 100; for Plant response rating, Soybean: 31 g ai/ha, scale 0 to 100 (0 no effect, 100 complete control)
Outline: (§1)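 Test chemicals were formulated with surfactant in a non-phytotoxic solvent and sprayed both on freshly planted seeds (preemergence) and on 1- to 4-leaf plants of 2–18 cm (postemergence). Flooded-paddy pots received compound directly into 3 cm of standing water, maintained for the test.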

common ragweed = assay: Test C pre-/postemergence test; assay type: in vivo, Ambrosia elation; conditions: Preemergence; for Ragweed plant response rating: 62 g ai/ha, scale 0 to 100; for Plant response rating, Ragweed: 31 g ai/ha, scale 0 to 100 (0 no effect, 100 complete control)
Outline: as §1

Surinam grass = assay: Test C pre-/postemergence test; assay type: in vivo, Brachiaria decumbens; conditions: Preemergence; for Surinam Grass plant response rating: 62 g ai/ha, scale 0 to 100; for Plant response rating, Surinam Grass: 31 g ai/ha, scale 0 to 100 (0 no effect, 100 complete control)
Outline: as §1

giant foxtail = assay: Test A pre-/postemergence greenhouse test; assay type: in vivo, Setaria faberi; conditions: for Foxtail, Giant plant response rating: 0 to 100 scale; for Plant response rating, Foxtail, Giant: 0 to 100 scale where 0 is no effect and 100 is complete control
Outline: (§2)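 Visual injury ratings against untreated controls, taken roughly ten days after treatment in greenhouse. Plants were sprayed postemergence at one- to two-leaf stage (2–10 cm tall); at the same time, seeded loam/sand soil received a directed preemergence spray. Formulation: non-phytotoxic solvent mixture with surfactant.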

barnyardgrass [1] = assay: Test C flooded paddy test; assay type: in vivo, Echinochloa crus-galli; conditions: Flood
Outline: (§3)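 Compound was added to standing water 3 cm above soil, flood maintained, and plants held in a greenhouse before visual scoring against controls at 13 to 15 days.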

catchweed bedstraw = assay: Test C pre-/postemergence test; assay type: in vivo, Galium aparine; conditions: Preemergence; for Galium plant response rating: 62 g ai/ha, scale 0 to 100; for Plant response rating, Galium: 31 g ai/ha, scale 0 to 100 (0 no effect, 100 complete control); for Plant response rating (0 to 100), Galium: 250 g ai/ha
Outline: as §1

lambsquarters = assay: Test C pre-/postemergence test; assay type: in vivo, Chenopodium album; conditions: Preemergence; for Lambsquarters plant response rating: 62 g ai/ha, scale 0 to 100; for Plant response rating, Lambsquarters: 31 g ai/ha, scale 0 to 100 (0 no effect, 100 complete control)
Outline: as §1

duck salad = assay: Test C flooded paddy test; assay type: in vivo, Heteranthera limosa; conditions: Flood
Outline: as §3

green foxtail = assay: Test C pre-/postemergence test; assay type: in vivo, Setaria viridis; conditions: Preemergence; for Plant response rating, Foxtail, Green: 31 g ai/ha, scale 0 to 100 (0 no effect, 100 complete control); for Plant response rating (0 to 100), Foxtail, Green: 250 g ai/ha
Outline: as §1

downy brome = assay: Test C pre-/postemergence test; assay type: in vivo, Bromus tectorum; conditions: for Plant response rating, Bromegrass, Downy: 31 g ai/ha, scale 0 to 100 (0 no effect, 100 complete control); for Plant response rating (0 to 100), Bromegrass, Downy: 250 g ai/ha
Outline: as §1

velvetleaf [2] = assay: Test A pre-/postemergence greenhouse test; assay type: in vivo, Abutilon theophrasti; conditions: for Velvetleaf plant response rating: 0 to 100 scale; for Plant response rating, Velvetleaf: 0 to 100 scale where 0 is no effect and 100 is complete control
Outline: as §2

crabgrass = assay: Test A pre-/postemergence greenhouse test; assay type: in vivo, Digitaria sanguinalis; conditions: for Crabgrass, Large plant response rating: 0 to 100 scale; for Plant response rating, Crabgrass, Large: 0 to 100 scale where 0 is no effect and 100 is complete control
Outline: as §2

blackgrass = assay: Test C pre-/postemergence test; assay type: in vivo, Alopecurus myosuroides; conditions: for Plant response rating, Blackgrass: 31 g ai/ha, scale 0 to 100 (0 no effect, 100 complete control); for Plant response rating (0 to 100), Blackgrass: 250 g ai/ha
Outline: as §1

woolly cupgrass = assay: Test C pre-/postemergence test; assay type: in vivo, Eriochloa villosa; conditions: Preemergence; for Cupgrass, Woolly plant response rating: 62 g ai/ha, scale 0 to 100; for Plant response rating, Cupgrass, Woolly: 31 g ai/ha, scale 0 to 100 (0 no effect, 100 complete control); for Plant response rating (0 to 100), Cupgrass, Woolly: 250 g ai/ha
Outline: as §1

barnyardgrass [3] = assay: Test A pre-/postemergence greenhouse test; assay type: in vivo, Echinochloa crus-galli; conditions: for Barnyardgrass plant response rating: 0 to 100 scale; for Plant response rating, Barnyardgrass: 0 to 100 scale where 0 is no effect and 100 is complete control
Outline: as §2

pigweed = assay: Test C pre-/postemergence test; assay type: in vivo, Amaranthus retroflexus; conditions: Preemergence; for Pigweed plant response rating: 62 g ai/ha, scale 0 to 100; for Plant response rating, Pigweed: 31 g ai/ha, scale 0 to 100 (0 no effect, 100 complete control)
Outline: as §1

velvetleaf [4] = assay: Test C pre-/postemergence test; assay type: in vivo, Abutilon theophrasti; conditions: Preemergence; for Velvetleaf plant response rating: 62 g ai/ha, scale 0 to 100; for Plant response rating, Velvetleaf: 31 g ai/ha, scale 0 to 100 (0 no effect, 100 complete control)
Outline: as §1

[5] = Postemergence, 125 g ai/ha, 0 is no effect, 100 is complete control
[6] = Postemergence, 500 g ai/ha, 0 is no effect, 100 is complete control
[7] = Preemergence, 125 g ai/ha, 0 no effect, 100 complete control
[8] = 31 g ai/ha, scale 0 to 100 (0 no effect, 100 complete control)
[9] = 62 g ai/ha, scale 0 to 100, 0 no effect, 100 complete control, 13 to 15 days
[10] = 125 g ai/ha, scale 0 to 100, 0 no effect, 100 complete control, 13 to 15 days
[11] = 250 g ai/ha, scale 0 to 100 (0 no effect, 100 complete control)
[12] = 62 g ai/ha, Preemergence, scale 0 to 100
[13] = preemergence, 125 g ai/ha, scale 0 (no effect) to 100 (complete control)

## Cn1nc(C(F)(F)F)c(CS(=O)(=O)c2ccc(Cl)c[n+]2[O-])c1Cl [Compound 18]
soybean
  Soybean plant response rating: 0
  Plant response rating, Soybean: 0
Common ragweed
  Ragweed plant response rating: 0
  Plant response rating, Ragweed: 0
Surinam grass
  Surinam Grass plant response rating: 0
  Plant response rating, Surinam Grass: 0
Giant foxtail; [5]
  Foxtail, Giant plant response rating: 60
Giant foxtail; [6]
  Foxtail, Giant plant response rating: 80
Giant foxtail; [7]
  Foxtail, Giant plant response rating: 90
Giant foxtail; Preemergence, 500 g ai/ha
  Plant response rating, Foxtail, Giant: 100
Barnyardgrass [1]; [8]
  Plant response rating, Barnyardgrass: 0
Barnyardgrass [1]; [9]
  Plant response rating, Barnyardgrass: 30
Barnyardgrass [1]; [10]
  Plant response rating, Barnyardgrass: 75
Barnyardgrass [1]; [11]
  Plant response rating, Barnyardgrass: 85
Catchweed bedstraw
  Galium plant response rating: 0
  Plant response rating, Galium: 0
  Plant response rating (0 to 100), Galium: 90
lambsquarters
  Lambsquarters plant response rating: 0
  Plant response rating, Lambsquarters: 0
Duck salad; [8]
  Plant response rating, Ducksalad: 0
Duck salad; [9]
  Plant response rating, Ducksalad: 0
Duck salad; [10]
  Plant response rating, Ducksalad: 80
Duck salad; [11]
  Plant response rating, Ducksalad: 80
Green foxtail
  Plant response rating, Foxtail, Green: 20
  Plant response rating (0 to 100), Foxtail, Green: 100
Downy brome; [12]
  Bromegrass, Downy plant response rating: 0
Downy brome; Preemergence
  Plant response rating, Bromegrass, Downy: 0
  Plant response rating (0 to 100), Bromegrass, Downy: 0
Downy brome; [13]
  Bromegrass, Downy plant response rating: 0
Velvetleaf [2]; [5]
  Velvetleaf plant response rating: 0
Velvetleaf [2]; [6]
  Velvetleaf plant response rating: 40
Velvetleaf [2]; [7]
  Velvetleaf plant response rating: 0
Velvetleaf [2]; Preemergence, 500 g ai/ha
  Plant response rating, Velvetleaf: 40
crabgrass; [5]
  Crabgrass, Large plant response rating: 60
crabgrass; [6]
  Crabgrass, Large plant response rating: 80
crabgrass; [7]
  Crabgrass, Large plant response rating: 80
crabgrass; Preemergence, 500 g ai/ha
  Plant response rating, Crabgrass, Large: 90
blackgrass; [12]
  Blackgrass plant response rating: 0
blackgrass; Preemergence
  Plant response rating, Blackgrass: 0
  Plant response rating (0 to 100), Blackgrass: 98
blackgrass; [13]
  Blackgrass plant response rating: 98
Woolly cupgrass
  Cupgrass, Woolly plant response rating: 80
  Plant response rating, Cupgrass, Woolly: 10
  Plant response rating (0 to 100), Cupgrass, Woolly: 100
Barnyardgrass [3]; [5]
  Barnyardgrass plant response rating: 60
Barnyardgrass [3]; [6]
  Barnyardgrass plant response rating: 80
Barnyardgrass [3]; [7]
  Barnyardgrass plant response rating: 90
Barnyardgrass [3]; Preemergence, 500 g ai/ha
  Plant response rating, Barnyardgrass: 100
pigweed
  Pigweed plant response rating: 100
  Plant response rating, Pigweed: 100
Velvetleaf [4]
  Velvetleaf plant response rating: 0
  Plant response rating, Velvetleaf: 0

## Cc1cc[n+]([O-])c(S(=O)(=O)Cc2c(C(F)(F)F)nn(C)c2Cl)c1 [Compound 19]
soybean
  Soybean plant response rating: 0
  Plant response rating, Soybean: 0
Common ragweed
  Ragweed plant response rating: 0
  Plant response rating, Ragweed: 0
Surinam grass
  Surinam Grass plant response rating: 50
  Plant response rating, Surinam Grass: 0
Giant foxtail; [5]
  Foxtail, Giant plant response rating: 50
Giant foxtail; [6]
  Foxtail, Giant plant response rating: 80
Giant foxtail; [7]
  Foxtail, Giant plant response rating: 80
Giant foxtail; Preemergence, 500 g ai/ha
  Plant response rating, Foxtail, Giant: 100
Barnyardgrass [1]; [8]
  Plant response rating, Barnyardgrass: 0
Barnyardgrass [1]; [9]
  Plant response rating, Barnyardgrass: 0
Barnyardgrass [1]; [10]
  Plant response rating, Barnyardgrass: 30
Barnyardgrass [1]; [11]
  Plant response rating, Barnyardgrass: 75
Catchweed bedstraw
  Galium plant response rating: 100
  Plant response rating, Galium: 85
  Plant response rating (0 to 100), Galium: 100
lambsquarters
  Lambsquarters plant response rating: 0
  Plant response rating, Lambsquarters: 0
Duck salad; [8]
  Plant response rating, Ducksalad: 0
Duck salad; [9]
  Plant response rating, Ducksalad: 0
Duck salad; [10]
  Plant response rating, Ducksalad: 0
Duck salad; [11]
  Plant response rating, Ducksalad: 75
Green foxtail; 62 g ai/ha, scale 0 to 100
  Foxtail, Green plant response rating: 100
Green foxtail
  Plant response rating, Foxtail, Green: 98
  Plant response rating (0 to 100), Foxtail, Green: 100
Downy brome; [12]
  Bromegrass, Downy plant response rating: 0
Downy brome; Preemergence
  Plant response rating, Bromegrass, Downy: 0
  Plant response rating (0 to 100), Bromegrass, Downy: 0
Downy brome; [13]
  Bromegrass, Downy plant response rating: 0
Velvetleaf [2]; [5]
  Velvetleaf plant response rating: 20
Velvetleaf [2]; [6]
  Velvetleaf plant response rating: 40
Velvetleaf [2]; [7]
  Velvetleaf plant response rating: 0
Velvetleaf [2]; Preemergence, 500 g ai/ha
  Plant response rating, Velvetleaf: 50
crabgrass; [5]
  Crabgrass, Large plant response rating: 40
crabgrass; [6]
  Crabgrass, Large plant response rating: 80
crabgrass; [7]
  Crabgrass, Large plant response rating: 70
crabgrass; Preemergence, 500 g ai/ha
  Plant response rating, Crabgrass, Large: 100
blackgrass; [12]
  Blackgrass plant response rating: 0
blackgrass; Preemergence
  Plant response rating, Blackgrass: 0
  Plant response rating (0 to 100), Blackgrass: 100
blackgrass; [13]
  Blackgrass plant response rating: 0
Woolly cupgrass
  Cupgrass, Woolly plant response rating: 100
  Plant response rating, Cupgrass, Woolly: 0
  Plant response rating (0 to 100), Cupgrass, Woolly: 100
Barnyardgrass [3]; [5]
  Barnyardgrass plant response rating: 40
Barnyardgrass [3]; [6]
  Barnyardgrass plant response rating: 80
Barnyardgrass [3]; [7]
  Barnyardgrass plant response rating: 80
Barnyardgrass [3]; Preemergence, 500 g ai/ha
  Plant response rating, Barnyardgrass: 100
pigweed
  Pigweed plant response rating: 100
  Plant response rating, Pigweed: 80
Velvetleaf [4]
  Velvetleaf plant response rating: 0
  Plant response rating, Velvetleaf: 0
